Measured values published in patent US8377867B2, “Use of epinecidin-1 peptides and anti-lipopolysaccharide factor peptides for treating microbial infection” (Academia Sinica, priority 2009, dated 2013).
Bridge positions count the residues as written; N and C are the ends. Ends that are not written are not given here. Peptide text beside a SMILES is read from it.

How the values were obtained:
T. vaginalis cells = assay: EtBr/acridine orange staining of T. vaginalis cells, epifluorescence microscopy; format: cell-based, Trichomonas vaginalis; settings: peptide 200 μg/ml co-treated with metronidazole 100 μg/ml, 16 hours
Method: T. vaginalis cells (4000 cells/well) were co-treated with metronidazole (100 μg/ml) and Epinecidin-122-42 (200 μg/ml), csSALF55-76 (200 μg/ml), or 1sSALF122-42 (200 μg/ml) for 16 hours. Both metronidazole and the peptides were dissolved in PBS. The T. vaginalis cells were then stained with cold PBS containing 1 μg/ml ethidium bromide (EtBr) and 1 μg/ml acridine orange (AO) for 10 minutes and examined by epifluorescence microscopy.

[1] = system: T. vaginalis cells (ATCC 50148 and T1); assay: Scanning electron microscopy of T. vaginalis morphology; format: cell-based, Trichomonas vaginalis; settings: ATCC 50148 and T1 cells, peptide 100 or 200 μg/ml, 1, 4 and 16 hours
Method: The effect of the three peptides on morphology of T. vaginalis cells was examined by scanning electron microscopy (SEM) and transmission electron microscopy (TEM) as follows. Cells of the ATCC 50148 and T1 strains were cultured in a 96-well cell culture plate (1×10^4 cells/well). The ATCC 50148 cells were treated with Epinecidin-122-42 (100 μg/ml), csSALF55-76 (100 μg/ml), or 1sSALF122-42 (200 μg/ml) for 1, 4, and 16 hours and the T1 cells were treated with Epinecidin-122-42 (100 μg/ml), csSALF55-76 (200 μg/ml), or 1sSALF122-42 (100 μg/ml) for the same periods. T. vaginalis cells treated with PBS were used as a control. The treated cells were then analyzed by SEM. […] A large amount of cell debris was also observed in the peptide-treated cells.

[2] = system: T. vaginalis cells (ATCC 50148 and T1); assay: Transmission electron microscopy of T. vaginalis morphology; format: cell-based, Trichomonas vaginalis; settings: ATCC 50148 and T1 cells, 16 hours, peptide 150-250 (Epinecidin 150 μg/ml, csSALF 250 mg/ml, lsSALF 150 or 200 μg/ml)
Method: The T. vaginalis cells mentioned above were also subjected to TEM analysis as described in Pan et al., DNA Cell Biol. 26:403-413 (2007). Briefly, the ATCC 50148 cells (2×10^4) were treated for 16 hours with Epinecidin-122-42 at a concentration of 150 μg/ml, csSALF55-76 at a concentration of […], and 1sSALF122-42 at a concentration of 150 μg/ml; the T1 cells (2×10^4) were treated for 16 hours with Epinecidin-122-42 at a concentration of 150 μg/ml, csSALF55-76 at a concentration of […], and 1sSALF122-42 at a concentration of 200 μg/ml. T. vaginalis cells treated with PBS were used as a control. Morphology of the treated cells was observed using a transmission electron microscope (Hitachi, H-7000, Tokyo, Japan) at 75 kV; see Pan et al., DNA Cell Biol. 26:403-413 (2007).

[3] = system: T. vaginalis cells (ATCC 50148 and T1); assay: T. vaginalis cell viability, trypan blue exclusion assay; format: cell-based, Trichomonas vaginalis
Method: Finally, the numbers of viable T. vaginalis cells after peptide treatment were counted following the method described in Ofer et al., Int. J. Parasitol., 38:959-968 (2008). Briefly, cells of ATCC 50148 and T1 were treated with each of the three peptides mentioned above at 25, 50, 100, or 200 μg/ml for 1, 4, and 16 h (overnight), then the viability was analyzed. Cell viability was then determined by the conventional trypan blue exclusion assay. […] More than 60% T1 cells died after being treated with this peptide at a concentration of 50 μg/ml for one hour.

[4] = system: Propionibacterium acnes (BCRC #10723); format: cell-based
Method: Propionibacterium acnes (BCRC #10723) cells were cultured under the conditions recommended by Bioresource Collection and Research Centre (BCRC) in Taiwan (see bcrc.firdi,org.tw:819/bcrc/indexe.htm). Their growth inhibition by Epinecidin-122-42 was determined following the method described in Pan et al., DNA Cell Biol. 26:403-413 (2007). The minimum inhibitory concentration of this peptide against P. acnes was 200 μg/ml.

[5] = system: Propionibacterium acnes (BCRC #10723); assay: SEM and TEM of P. acnes morphology; format: cell-based; settings: P. acnes BCRC #10723, peptide 100 μg/ml in PBS
Method: The effect of Epinecidin-122-42 on P. acnes morphology was examined by SEM and TEM as follows. BCRC #10723 cells were seeded in a 6-well plate (1×10^4 cells per well), cultured for a sufficient period, collected by centrifugation, and re-suspended in PBS to reach an OD550 value of 1.0. The bacterial suspension was mixed with a freshly prepared PBS solution containing the peptide at a concentration of 100 μg/ml or PBS as a control.

[6] = system: C. albicans strain BCRC #20511; format: cell-based, Candida albicans
Method: Cells of C. albicans strain BCRC #20511 were cultured following the protocol provided by BCRC. These cells were treated with peptide Epinecidin-122-42 at various concentrations and their growth inhibition was examined following the method disclosed in Pan et al., Int. Immunopharmacol. 7:687-700 (2007).

[7] = system: C. albicans strain BCRC #20511; assay: SEM and TEM of C. albicans morphology; format: cell-based, Candida albicans; settings: C. albicans BCRC #20511, peptide 50 μg/ml
Method: The effect of Epinecidin-122-42 (50 μg/ml) on C. albicans cell morphology was analyzed by SEM and TEM following the methods mentioned above.

[8] = ATCC 50148 cells, 50 μg/ml, four hours

Molecule: CSCC[C@@H]1NC(=O)[C@H](CCCNC(=N)N)NC(=O)CNC(=O)[C@H](CCCCN)NC(=O)[C@H](Cc2ccc(O)cc2)NC(=O)[C@H](Cc2ccc(O)cc2)NC(=O)[C@H](C(C)C)NC(=O)[C@H](CCC(N)=O)NC(=O)[C@H](Cc2ccccc2)NC(=O)[C@H](CCCNC(=N)N)NC(=O)[C@H](CCCCN)NC(=O)[C@H](CC(C)C)NC(=O)[C@H](Cc2ccc(O)cc2)NC(=O)[C@@H]2CCCN2C(=O)[C@H](CCCCN)NC(=O)[C@H](C(C)C)NC(=O)[C@H]([C@@H](C)O)NC(=O)[C@H](Cc2ccccc2)NC(=O)[C@H](CCCCN)NC(=O)[C@@H](NC(=O)[C@H](CCC(=O)O)NC(C)=O)CSSC[C@@H](C(=O)N2CCC[C@H]2C(N)=O)NC(=O)[C@H](Cc2c[nH]c3ccccc23)NC1=O [cs-SALF55-76] (Ac-ECKFTVKPYLKRFQVYYKGRMWCP-NH2; disulfide 2-23; N-terminus and C-terminus assumed)
- Effect on cellular and nuclear membranes (EtBr/AO red color in nuclei) (T. vaginalis cells): destroyed the cellular and nuclear membranes
- Cell morphology by SEM [1]: damaged cell membranes and distorted cell shape
- Cell morphology by TEM [2]: significantly disrupted the intact structure
- Cells died after treatment [3, 8]: most ATCC 50148 cells died
- Cells died after treatment ([3]; T1 cells, 25 μg/ml, 16 hours): most T1 cells died

Molecule: CSCC[C@H](NC(=O)[C@H](CCCNC(=N)N)NC(=O)CNC(=O)[C@H](CCCCN)NC(=O)[C@H](Cc1ccc(O)cc1)NC(=O)[C@H](Cc1ccc(O)cc1)NC(=O)[C@@H](NC(=O)[C@H](CCC(N)=O)NC(=O)[C@H](Cc1ccccc1)NC(=O)[C@H](CCCNC(=N)N)NC(=O)[C@H](CCCCN)NC(=O)[C@H](CC(C)C)NC(=O)[C@H](Cc1ccc(O)cc1)NC(=O)[C@@H]1CCCN1C(=O)[C@H](CCCCN)NC(=O)[C@@H](NC(=O)[C@@H](NC(=O)[C@H](Cc1ccccc1)NC(=O)[C@H](CCCCN)NC(=O)[C@H](CS)NC(=O)[C@@H](N)CCC(=O)O)[C@@H](C)O)C(C)C)C(C)C)C(=O)N[C@@H](Cc1c[nH]c2ccccc12)C(=O)N[C@@H](CS)C(=O)N1CCC[C@H]1C(=O)O [ls-SALF55-76] (H-ECKFTVKPYLKRFQVYYKGRMWCP-OH; N-terminus and C-terminus assumed)
- Effect on cellular and nuclear membranes (EtBr/AO red color in nuclei) (T. vaginalis cells): destroyed the cellular and nuclear membranes
- Cell morphology by SEM [1]: damaged cell membranes and distorted cell shape
- Cell morphology by TEM [2]: significantly disrupted the intact structure
- Cells died after treatment [3, 8]: most ATCC 50148 cells died
- Cells died after treatment ([3]; T1 cells, 25 μg/ml, 16 hours): most T1 cells died

Molecule: GFIFHIIKGLFHAGKMIHGLV-NH2 [Epinecidin-122-42]
- Effect on cellular and nuclear membranes (EtBr/AO red color in nuclei) (T. vaginalis cells): destroyed the cellular and nuclear membranes
- Cell morphology by SEM [1]: damaged cell membranes and distorted cell shape
- Cell morphology by TEM [2]: significantly disrupted the intact structure
- Viable cells after treatment ([3]; ATCC 50148 cells, 25 μg/ml, one hour): No viable cells
- Viable cells after treatment ([3]; T1 cells, 25 μg/ml, four hours): No viable cells
- Cells died after treatment ([3]; T1 cells, 50 μg/ml, one hour): More than 60%
- Minimum inhibitory concentration [4]: 200 µg/mL
- Cell morphology by SEM and TEM [5]: destroyed the outer membranes of P. acnes cells
- Cell growth inhibition ([6]; C. albicans BCRC #20511, various concentrations): significantly inhibited C. albicans cell growth
- Minimum inhibitory concentration ([6]; strain BCRC #20511): 25 µg/mL
- Cell morphology by SEM and TEM [7]: irregular shape and disrupted outer/intracellular membranes
